Data as given in ChEMBL document CHEMBL1201862, “PubChem BioAssay data set” (2004).
The source made the active and inactive calls.

Tests used:
[1] = biological target: T1, Protein skinhead-1 (Caenorhabditis elegans, UniProt P34707); format: functional
T1 sequence (P34707 whole entry): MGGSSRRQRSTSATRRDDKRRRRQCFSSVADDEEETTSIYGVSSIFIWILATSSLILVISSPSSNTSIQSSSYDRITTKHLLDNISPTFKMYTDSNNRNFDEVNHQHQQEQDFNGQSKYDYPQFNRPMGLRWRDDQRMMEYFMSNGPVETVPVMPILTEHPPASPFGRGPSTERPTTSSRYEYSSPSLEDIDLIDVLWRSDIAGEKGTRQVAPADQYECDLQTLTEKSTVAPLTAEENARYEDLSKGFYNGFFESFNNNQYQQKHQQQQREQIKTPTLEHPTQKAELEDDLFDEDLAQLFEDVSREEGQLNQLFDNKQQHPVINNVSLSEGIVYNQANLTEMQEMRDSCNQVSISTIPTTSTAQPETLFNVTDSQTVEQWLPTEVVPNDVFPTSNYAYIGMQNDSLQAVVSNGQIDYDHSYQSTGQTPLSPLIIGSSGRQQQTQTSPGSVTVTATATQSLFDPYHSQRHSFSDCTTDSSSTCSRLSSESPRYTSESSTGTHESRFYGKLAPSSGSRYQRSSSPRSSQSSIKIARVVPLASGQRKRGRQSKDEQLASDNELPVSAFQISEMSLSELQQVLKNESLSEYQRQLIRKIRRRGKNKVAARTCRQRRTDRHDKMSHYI

[2] = biological target: COUP transcription factor 2 (Homo sapiens, UniProt P24468); test: Luminescence-based cell-based high throughput dose response assay to identify inhibitors of COUP-TFII (NR2F2).; format: functional;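 further: HEK293 cells transiently cotransfected with COUP-TFII expression vector and reporter; luciferase reporter luminescence driven by COUP-TFII from the pX2-168 reporter plasmid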
[3] = ADAM10 inhibitors, peptide cleavage, dose response, biochemical, QFRET (AID 743254);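 further: ADAM10 enzyme with the DM2 quenched FRET peptide as substrate; EDANS fluorescence gain as the protease cuts the substrate; inhibitor potency against ADAM10 proteolytic activity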
[4] = biological target: Disintegrin and metalloproteinase domain-containing protein 17 (Homo sapiens, UniProt P78536); test: ADAM17 protease inhibitors, dose response, counter-screen for ADAM10 exosite inhibitor project, biochemical, quenched FRET substrate (AID 743253)
[5] = tested on: HEK293; test: inhibitors of LMP1-driven NF-kB reporter, dose response, cell-based, HEK293, luciferase, cherry-pick (AID 588343); format: functional; conditions: Homo sapiens
[6] = biological target: T2, Latent membrane protein 1 (Human herpesvirus 4 (strain B95-8), UniProt P03230); test: TES1-eGFP NF-kB reporter inhibition versus Tet-On dsRED, dose response, selectivity assay for LMP1 NF-kB inhibitor project, imaging, HEK293T, dual-color eGFP/dsRED, cherry-picks (AID 588398); format: functional, cell-based
T2 sequence (P03230 whole entry): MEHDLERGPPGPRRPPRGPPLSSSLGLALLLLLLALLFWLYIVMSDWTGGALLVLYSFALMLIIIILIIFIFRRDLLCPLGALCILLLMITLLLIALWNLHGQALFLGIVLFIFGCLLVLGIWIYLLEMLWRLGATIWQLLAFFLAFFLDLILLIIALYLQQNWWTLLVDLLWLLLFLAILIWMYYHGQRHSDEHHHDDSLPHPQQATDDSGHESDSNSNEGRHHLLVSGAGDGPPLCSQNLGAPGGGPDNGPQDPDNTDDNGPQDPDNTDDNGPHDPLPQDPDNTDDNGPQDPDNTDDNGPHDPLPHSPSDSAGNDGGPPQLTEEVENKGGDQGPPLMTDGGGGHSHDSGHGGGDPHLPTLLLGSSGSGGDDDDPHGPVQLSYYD

[7] = biological target: Endoplasmic reticulum aminopeptidase 1 (Homo sapiens, UniProt Q9NZ08); test: ERAP1 aminopeptidase inhibitors, dose response, biochemical, cherry-pick, set 2, plate reader (AID 743314)
[8] = biological target: T3, Oxysterols receptor LXR-beta (Homo sapiens, UniProt P55055); format: functional, cell-based
T3 sequence (P55055 whole entry): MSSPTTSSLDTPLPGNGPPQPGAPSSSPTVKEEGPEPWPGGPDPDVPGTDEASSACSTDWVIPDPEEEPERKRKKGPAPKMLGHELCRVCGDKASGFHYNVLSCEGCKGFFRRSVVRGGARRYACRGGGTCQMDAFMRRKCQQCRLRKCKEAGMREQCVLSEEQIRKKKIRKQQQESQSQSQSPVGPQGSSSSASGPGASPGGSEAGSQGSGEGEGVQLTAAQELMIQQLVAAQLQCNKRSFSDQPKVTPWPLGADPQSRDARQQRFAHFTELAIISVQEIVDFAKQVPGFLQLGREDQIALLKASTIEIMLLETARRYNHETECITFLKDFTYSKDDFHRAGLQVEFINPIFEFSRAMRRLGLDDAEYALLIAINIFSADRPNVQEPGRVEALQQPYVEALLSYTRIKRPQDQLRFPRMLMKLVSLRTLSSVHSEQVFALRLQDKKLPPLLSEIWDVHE

[9] = cells
[10] = biological target: T3, Oxysterols receptor LXR-beta; format: functional, cell-based; remark: listed apart in the source
[11] = biological target: NAD-dependent protein deacylase sirtuin-5, mitochondrial (Homo sapiens, UniProt Q9NXA8); test: SIRT5 desuccinylase inhibitors, dose response, biochemical, fluorescence imaging, cherry-pick, set 5 (AID 720591);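 further: desuccinylation of succinyl peptide AMC substrate read as fluorescence after trypsin release; potency of inhibitors that lower fluorescence and may act on trypsin instead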
[12] = Luminescence Cell-Based Dose Retest to Confirm Inhibitors of Cancer Stem Cells. [Related pubchem assays (depositor defined):AID2717, AID2721]; format: functional; conditions: Homo sapiens
[13] = Shn3 3'UTR reporter inhibitors, dose response, cell-based, Clone20 osteoblasts, firefly luciferase, cherry-picked (AID 624132); format: functional;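 further: firefly luciferase luminescence from reporter carrying the Shn3 3'UTR in osteoblasts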
[14] = HepG2 cell cytotoxicity, dose response, cytotoxicity control for Shn3 inhibitor project, CellTiter-Glo, cherry-picked (AID 624134); format: functional, cell-based
[15] = control 3'UTR Renilla luciferase suppression, dose response, counter-screen for Shn3 inhibitor project, cell-based, Clone20-Shn3RL, cherry-picked (AID 624133); format: functional
[16] = biological target: Paired box protein Pax-8 (Homo sapiens, UniProt Q06710); test: inhibitors of PAX8-driven TPO luciferase reporter, dose response, RMG-I cells, cherry-pick (AID 687027); format: functional, cell-based;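 further: luciferase reporter driven by Pax8 target thyroperoxidase promoter measured by SteadyGlo luminescence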
[17] = non-specific cell cytotoxicity, dose response, cytotoxicity control for PAX8 inhibitor project, plate reader, dry powder samples (AID 743021); format: functional, cell-based
[18] = A2780 ovarian cancer cell cytotoxicity, dose response, cytotoxicity control, plate reader, dry powder samples (AID 743046); format: functional, cell-based
[19] = NIH:OVCAR-3 ovarian cancer cell cytotoxicity, dose response, PAX8 inhibitor project, plate reader, dry powder samples (AID 743044); format: functional, cell-based
[20] = IGROV1 ovarian cancer cell cytotoxicity, dose response, PAX8 inhibitor project, plate reader, dry powder samples (AID 743043); format: functional, cell-based; conditions: IGROV-1
[21] = HEK293T cytotoxicity, dose response, cytotoxicity control for miR-122 modulator project, cell-based, activator set, cherry-pick (AID 720690); format: functional;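 further: HEK293T human cells scored for general mammalian cytotoxicity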
[22] = cytotoxicity in OVCAR8 ovarian cancer cells, dose response, PAX8 project, cell-based, plate reader, dry powder samples (AID 743197); format: functional; conditions: OVCAR-8

Paired box protein Pax-8, sequence (Q06710 whole entry): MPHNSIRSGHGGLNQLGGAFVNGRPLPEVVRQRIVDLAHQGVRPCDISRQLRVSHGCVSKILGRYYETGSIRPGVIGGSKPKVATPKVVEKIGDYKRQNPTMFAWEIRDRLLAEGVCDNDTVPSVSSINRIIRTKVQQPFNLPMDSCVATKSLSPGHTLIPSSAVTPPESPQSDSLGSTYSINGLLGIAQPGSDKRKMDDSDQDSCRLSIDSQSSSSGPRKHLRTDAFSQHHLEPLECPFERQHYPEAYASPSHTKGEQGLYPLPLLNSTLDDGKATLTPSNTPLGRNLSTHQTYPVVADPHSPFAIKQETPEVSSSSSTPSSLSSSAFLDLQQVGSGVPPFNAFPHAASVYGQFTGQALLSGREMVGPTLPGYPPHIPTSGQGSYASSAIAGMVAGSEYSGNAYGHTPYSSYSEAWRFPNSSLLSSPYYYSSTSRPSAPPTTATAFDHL
Endoplasmic reticulum aminopeptidase 1, sequence (Q9NZ08 whole entry): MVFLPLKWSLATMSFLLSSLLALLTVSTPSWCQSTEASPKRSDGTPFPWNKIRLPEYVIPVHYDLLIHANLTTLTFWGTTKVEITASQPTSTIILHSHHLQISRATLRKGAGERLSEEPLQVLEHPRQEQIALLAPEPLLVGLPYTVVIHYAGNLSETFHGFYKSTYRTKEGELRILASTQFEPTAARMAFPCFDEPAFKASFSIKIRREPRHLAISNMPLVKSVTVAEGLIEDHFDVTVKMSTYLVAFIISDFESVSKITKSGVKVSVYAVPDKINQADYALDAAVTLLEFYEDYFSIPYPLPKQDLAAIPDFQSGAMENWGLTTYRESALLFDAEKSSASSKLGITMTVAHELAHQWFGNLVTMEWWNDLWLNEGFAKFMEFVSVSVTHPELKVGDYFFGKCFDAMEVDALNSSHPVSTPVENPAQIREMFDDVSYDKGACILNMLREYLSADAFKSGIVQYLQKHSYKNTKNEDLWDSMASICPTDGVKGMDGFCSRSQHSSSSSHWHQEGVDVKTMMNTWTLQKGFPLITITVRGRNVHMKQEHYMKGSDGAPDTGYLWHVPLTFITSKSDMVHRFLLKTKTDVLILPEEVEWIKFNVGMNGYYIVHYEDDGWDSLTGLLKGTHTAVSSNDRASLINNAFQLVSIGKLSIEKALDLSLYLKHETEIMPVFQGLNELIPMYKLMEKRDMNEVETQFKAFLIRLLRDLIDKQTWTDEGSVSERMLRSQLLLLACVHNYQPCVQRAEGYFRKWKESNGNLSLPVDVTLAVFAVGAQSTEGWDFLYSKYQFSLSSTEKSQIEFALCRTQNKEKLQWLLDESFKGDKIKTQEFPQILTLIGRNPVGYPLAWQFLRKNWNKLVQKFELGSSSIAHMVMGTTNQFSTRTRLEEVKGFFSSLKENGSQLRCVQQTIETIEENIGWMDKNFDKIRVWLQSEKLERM
Disintegrin and metalloproteinase domain-containing protein 17, sequence (P78536 whole entry, the tested form may be a part): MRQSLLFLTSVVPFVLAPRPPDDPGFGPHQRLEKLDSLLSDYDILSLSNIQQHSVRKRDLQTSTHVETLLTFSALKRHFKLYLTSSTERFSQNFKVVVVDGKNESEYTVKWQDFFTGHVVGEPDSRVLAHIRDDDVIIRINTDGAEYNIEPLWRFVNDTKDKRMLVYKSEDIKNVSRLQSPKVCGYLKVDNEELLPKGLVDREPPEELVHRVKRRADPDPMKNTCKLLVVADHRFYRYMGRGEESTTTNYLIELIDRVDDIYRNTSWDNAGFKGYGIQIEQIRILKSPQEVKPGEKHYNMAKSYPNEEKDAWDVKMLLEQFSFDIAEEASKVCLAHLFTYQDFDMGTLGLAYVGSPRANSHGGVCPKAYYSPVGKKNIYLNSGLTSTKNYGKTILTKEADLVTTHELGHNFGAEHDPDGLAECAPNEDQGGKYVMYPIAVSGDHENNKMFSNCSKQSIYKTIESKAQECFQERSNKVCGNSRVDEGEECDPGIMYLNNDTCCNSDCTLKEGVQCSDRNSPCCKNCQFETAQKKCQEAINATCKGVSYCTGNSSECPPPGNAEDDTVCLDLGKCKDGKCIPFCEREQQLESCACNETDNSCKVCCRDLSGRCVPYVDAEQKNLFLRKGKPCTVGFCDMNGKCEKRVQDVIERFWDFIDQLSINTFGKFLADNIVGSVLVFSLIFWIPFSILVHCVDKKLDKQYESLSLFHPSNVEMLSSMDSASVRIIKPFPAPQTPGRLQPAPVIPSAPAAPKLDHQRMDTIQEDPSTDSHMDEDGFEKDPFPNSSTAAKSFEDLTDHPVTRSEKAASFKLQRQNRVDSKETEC
NAD-dependent protein deacylase sirtuin-5, mitochondrial, sequence (Q9NXA8 whole entry): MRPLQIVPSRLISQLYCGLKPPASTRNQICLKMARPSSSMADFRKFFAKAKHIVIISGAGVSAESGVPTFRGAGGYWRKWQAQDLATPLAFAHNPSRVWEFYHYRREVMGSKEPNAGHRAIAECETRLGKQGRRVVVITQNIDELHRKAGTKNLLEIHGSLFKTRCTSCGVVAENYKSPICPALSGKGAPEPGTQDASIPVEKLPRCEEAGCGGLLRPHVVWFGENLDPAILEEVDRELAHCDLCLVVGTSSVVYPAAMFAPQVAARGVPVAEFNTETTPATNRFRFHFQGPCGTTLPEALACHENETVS
COUP transcription factor 2, sequence (P24468 whole entry): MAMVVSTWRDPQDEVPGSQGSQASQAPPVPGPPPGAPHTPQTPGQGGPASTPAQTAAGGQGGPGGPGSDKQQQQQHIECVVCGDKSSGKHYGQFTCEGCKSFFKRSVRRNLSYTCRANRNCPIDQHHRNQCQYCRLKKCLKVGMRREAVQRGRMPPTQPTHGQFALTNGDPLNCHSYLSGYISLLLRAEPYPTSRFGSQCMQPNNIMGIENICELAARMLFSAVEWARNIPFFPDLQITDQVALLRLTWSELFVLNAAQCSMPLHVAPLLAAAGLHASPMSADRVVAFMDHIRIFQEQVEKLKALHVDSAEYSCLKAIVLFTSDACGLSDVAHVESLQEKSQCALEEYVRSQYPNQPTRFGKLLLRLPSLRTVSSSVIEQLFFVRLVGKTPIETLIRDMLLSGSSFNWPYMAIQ

For `Cc1ccc(F)cc1NC(=O)Cc1nn(C)c(=O)c2ccccc12`, the IC50 [1] was > 100 µM (inactive) and the IC50 [2] was 12.7 µM (inactive).
For `CCCOc1ccc(NC(=O)CC2C(=O)N(Cc3ccccc3)C(=S)N2Cc2cccs2)cc1` (centres undefined), the IC50 [3] was 44.4 µM (inactive) and the IC50 [4] was > 69.6 µM (inactive).
With `CCc1cc(=O)oc2c(CNCc3c(F)cccc3Cl)c(O)ccc12` the AC50 [5] was 230 µM (active), the AC50 [6] was 54.9 µM (active) and the AC50 [7] was 8.53 µM (active).
In the case of `CC1=NN(C(N)=S)C(=O)C1N=Nc1ccc(Br)cc1` (centres undefined), the EC50 [8] is reported as > 67.6 µM (inactive) and the EC50 [9] is reported as > 67.6 µM (inactive).
In the case of `O=c1c2ccccc2cnn1-c1ccc(Br)cc1`, the EC50 [8] is reported as > 67.5 µM (inactive) and the EC50 [9] is reported as > 67.5 µM (inactive).
For `COCCNC(=O)/C(C#N)=C/c1cc(C)n(-c2ccc(C)cc2)c1C`, the EC50 [10] was > 67.5 µM (inactive).
In the case of `CCCn1c(SCC(=O)Nc2ccc3c(c2)OCO3)nc2c1c(=O)n(C)c(=O)n2C`, the AC50 [11] is reported as > 30 µM (inactive).
For `C=CCC[C@H](Cc1ccc(F)cc1)C(=O)OC[C@@H](Cc1c[nH]c2ccccc12)NC(=O)[C@H](CC=C)CC(=O)N(CCO)Cc1ccccc1`, the AC50 [12] was 3.42 µM (active), the AC50 [13] was 8.66 µM (active) and the AC50 [14] was 30.9 µM (active). The AC50 [15] was 29 µM (active), the IC50 [3] was > 7.72 µM (active) and the IC50 [4] was > 69.5 µM (inactive).
In the case of `CC(C)CCN1C(=O)c2ccccc2C1c1nnnn1-c1ccc2c(c1)OCCO2` (centres undefined), the AC50 [11] is reported as > 30 µM (inactive).
For `C[C@H](CO)N1C[C@H](C)[C@H](CN(C)Cc2ccc3c(c2)OCO3)OCCCC[C@H](C)Oc2ccc(NC(=O)Nc3ccc(C(F)(F)F)cc3)cc2C1=O`, the AC50 [16] was 9.15 µM (active) and the AC50 [17] was 46.4 µM (active).
For `C[C@@H]1CN([C@@H](C)CO)S(=O)(=O)c2ccc(C#Cc3ccccc3F)cc2O[C@H]1CN(C)C(=O)c1ccc2c(c1)OCO2`, the AC50 [16] was 4.88 µM (active), the AC50 [18] was 0.765 µM (active) and the AC50 [19] was 6.2 µM (active). For the same compound, the AC50 [20] was 28.5 µM (active), the AC50 [21] was 5.74 µM (active) and the AC50 [22] was 17.7 µM (active).
For `Cc1ccccc1-c1ccc([C@@H]2[C@@H]3CN(C(=O)Nc4cccc(F)c4)C[C@H]2N3)cc1`, the AC50 [16] was 30.7 µM (active), the AC50 [19] was 37.4 µM (active) and the AC50 [20] was 21.8 µM (active). For the same compound, the AC50 [17] was 22.9 µM (active).
For `O=C(NCCc1ccncc1)[C@@H]1N[C@@H]2c3ccc(/C=C/c4ccccc4)c(=O)n3C[C@@H]2[C@H]1CO`, the AC50 [7] was 13 µM (active).
In the case of `C/C(=N\NC(=O)OC(C)(C)C)c1ccc[nH]1`, the EC50 [10] is reported as > 67.6 µM (inactive).
